From US4871730A, “Cephem compounds” (Fujisawa Pharmaceutical Co., Ltd., priority 1983, dated 1989)
Converted amounts (≈) assume the structure as drawn.

System: Escherichia coli 31
Experiment: Minimal inhibitory concentration (MIC), in vitro antibacterial activity by two-fold agar-plate dilution method
Format: cell-based
Conditions: heart infusion agar, 37° C, 20 hours
Procedure: In vitro antibacterial activity was determined by the two-fold agar-plate dilution method as described below.
One loopful of an overnight culture of each test strain in trypticase-soy broth (10^8 viable cells per ml) was streaked on heart infusion agar (HI-agar) containing graded concentrations of representative test compounds, and the minimal inhibitory concentration (MIC) was expressed in terms of μg/ml after incubation at 37° C for 20 hours.

SMILES | MIC
CCO/N=C(\C(=O)NC1C(=O)N2C(C(=O)[O-])=C(S/C=C\c3ccc[n+](C)c3)CSC12)c1csc(N)n1 (stereo not drawn) [Test compound (4), 7-[2-(2-Aminothiazol-4-yl)-2-ethoxyiminoacetamido]3-[(Z)-2-(1-methyl-3-piridinio)vinylthio]-3-cephem-4-carboxylate (syn isomer)] | < 0.025 µg/mL
CO/N=C(\C(=O)NC1C(=O)N2C(C(=O)[O-])=C(S/C=C\c3ccc[n+](C)c3)CSC12)c1csc(N)n1 (stereo not drawn) [Test compound (1), 7-[2-(2-Aminothiazol-4-yl)-2-methoxyiminoacetamido]-3-[(Z)-2-(1-methyl-3-pyridinio)-vinylthio]-3-cephem-4-carboxylate (syn isomer)] | < 0.025 µg/mL
C=CCO/N=C(\C(=O)NC1C(=O)N2C(C(=O)O)=C(S/C=C\c3cccnc3)CSC12)c1nsc(N)n1 (stereo not drawn) [Test compound (3), 7-[2-Allyloxyimino-2-(5-amino-1,2,4-thiadiazol-3-yl)acetamido]-3-[(Z)-2-(3-pyridyl)vinylthio]-3-cephem-4-carboxylic acid (syn isomer)] | 0.05 µg/mL (≈ 0.0916 µM)
CO/N=C(\C(=O)NC1C(=O)N2C(C(=O)O)=C(S/C=C\c3cccnc3)CSC12)c1csc(N)n1 (stereo not drawn) [Test compound (2), 7-[2-(2-Aminothiazol-4-yl)-2-methoxyimino-acetamido]-3-[(Z)-2-(3-pyridyl)vinylthio]-3-cephem-4-carboxylic acid (syn isomer)] | < 0.025 µg/mL
